According to patent publication US10221163B2 (priority 2015, dated 2019):
Like-named read-outs stand apart in the source and are kept apart here.

Key:
[1] = system: Pseudomonas aeruginosa MB9798 vs MB9799; conditions: ratio MITC95 PA_9798/MITC95 PA_9799
Procedure, shortened: (§1)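 Microbroth MIC tests in PAO1-background strains with fixed imipenem and/or ceftazidime, usually at the CLSI breakpoint, plus fixed class A/C β-lactamase inhibitor against AmpC. MBL inhibitor titrated; concentration restoring susceptibility recorded and compared as fold difference between efflux+ MB9798 and efflux− MB9799.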

[2] = system: Escherichia coli expressing NDM-1 (CLB30005, CLB30016); format: cell-based; conditions: with imipenem 1 μg/ml; 95% inhibition of bacterial growth
Procedure, shortened: (§2)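 Clinical isolates (E. coli NDM-1, S. marcescens IMP-1, K. pneumoniae VIM-1) were diluted 1:100 from saline suspension into 1.1×CAMHB and exposed to test compound with imipenem at 1 μg/ml. Plates were incubated at 35° C for 22 hours to 24 hours, and growth was read by absorbance.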

[3] = system: Serratia marcescens expressing IMP-1 (CL5741); format: cell-based; conditions: with imipenem 1 μg/ml; 95% inhibition of bacterial growth
Procedure, shortened: as §2

[4] = system: Klebsiella pneumoniae expressing VIM-1 (IHMA599644); format: cell-based; conditions: with imipenem 1 μg/ml; 95% inhibition of bacterial growth
Procedure, shortened: as §2

VIM-1 = VIM-1 (Pseudomonas aeruginosa (strain ATCC 15692 / DSM 22644 / CIP 104116 / JCM 14847 / LMG 12228 / 1C / PRS 101 / PAO1), UniProt A0A0F7KYQ8); assay: biochemical; conditions: CCF2-FA substrate, 30 pM enzyme, 2 hours at 25° C.
Procedure, shortened: (§3)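 Class B activity is measured in the presence of compound by fluorescence with CCF2-FA after a 2-hour incubation at 25° C. IC50 is taken from a 4-parameter fit of semi-logarithmic dose-response data.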

[5] = system: Pseudomonas aeruginosa efflux− (MB9799), IMP-1; format: cell-based; conditions: concentration restoring susceptibility to imipenem at 2 μg/mL in the presence of a class A, C, D serine β-lactamase inhibitor closely related to relebactam
Procedure, shortened: as §1

NDM-1 = NDM-1 (Klebsiella pneumoniae, UniProt C7C422); assay: biochemical; format: biochemical; conditions: fluorescence assay, CCF2-FA substrate, 1 pM enzyme, 2 hours at 25° C., read-out: NDM-1 IC50
NDM-1, sequence (C7C422 whole entry, looked up, species assumed): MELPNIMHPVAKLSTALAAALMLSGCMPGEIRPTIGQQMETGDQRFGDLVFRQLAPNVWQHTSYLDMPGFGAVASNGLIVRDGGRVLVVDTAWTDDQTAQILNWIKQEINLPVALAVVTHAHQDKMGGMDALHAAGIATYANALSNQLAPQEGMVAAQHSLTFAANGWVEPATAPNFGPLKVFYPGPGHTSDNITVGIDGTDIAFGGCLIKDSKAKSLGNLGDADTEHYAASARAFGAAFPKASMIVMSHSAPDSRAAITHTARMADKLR
Procedure, shortened: as §3

IMP-1 = IMP-1 (Serratia marcescens, UniProt P52699); assay: biochemical; format: biochemical; conditions: fluorescence assay, CCF2-FA substrate, 2 pM enzyme, 2 hours at 25° C., read-out: IMP-1 IC50
IMP-1, sequence (P52699 whole entry, looked up, species assumed): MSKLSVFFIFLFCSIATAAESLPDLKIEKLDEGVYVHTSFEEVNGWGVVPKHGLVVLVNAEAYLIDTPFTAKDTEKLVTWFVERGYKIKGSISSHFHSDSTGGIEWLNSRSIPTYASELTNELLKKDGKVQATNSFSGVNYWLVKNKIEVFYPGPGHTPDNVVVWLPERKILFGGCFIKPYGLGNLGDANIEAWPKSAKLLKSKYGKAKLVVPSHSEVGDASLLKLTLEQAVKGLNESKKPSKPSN
Procedure, shortened: as §3

[6] = system: Pseudomonas aeruginosa efflux+ (MB9798), IMP-1; format: cell-based; conditions: concentration restoring susceptibility to imipenem at 2 μg/mL in the presence of a class A, C, D serine β-lactamase inhibitor closely related to relebactam
Procedure, shortened: as §1

[7] = fluorescence assay, read-out: VIM-1 IC50

Compound | Efflux ratio [1] | Escherichia coli expressing NDM-1 (CLB30016) MITC95 [2] [µM] | Serratia marcescens expressing IMP-1 (CL5741) MITC95 [3] [µM] | Klebsiella pneumoniae expressing VIM-1 (IHMA599644) MITC95 [4] [µM] | IC50 (VIM-1; [7]) [pM] | P. aeruginosa expressing IMP-1, efflux − (MB9799) MITC95 [5] [µM] | IC50 (NDM-1) [pM] | IC50 (IMP-1) [pM] | P. aeruginosa expressing IMP-1, efflux + (MB9798) MITC95 [6] [µM] | IC50 (VIM-1; VIM-1 IC50, fluorescence assay) [pM] | IC50 (NDM-1; 2,2,2-trifluoroacetate) [pM] | IC50 (IMP-1; 2,2,2-trifluoroacetate) [pM]
CC(C)(N)CNS(=O)(=O)c1ccc(-c2cccc3sc(N)nc23)c(-c2nnn[nH]2)c1S(N)(=O)=O [Example 87, N^1-(2-amino-2-methylpropyl)-4-(2-aminobenzo[d]thiazol-4-yl)-3-(1H-tetrazol-5-yl)benzene-1,2-disulfonamide] | 0.50 | 3.125 | 3.125 | 6.25 | 197 | 1.563 | 36.7 | 260 | 0.7813 | – | – | –
Nc1nc2c(-c3ccc(S(=O)(=O)NC4CC5CNC4C5)c(S(N)(=O)=O)c3-c3nnn[nH]3)cccc2s1 (stereo not drawn) [Example 88, 4-(2-aminobenzo[d]thiazol-4-yl)-N^1-(2-azabicyclo[2.2.1]heptan-6-yl)-3-(1H-tetrazol-5-yl)benzene-1,2-disulfonamide] | 0.50 | 3.125 | 3.125 | 6.25 | 165 | 3.125 | 20.3 | 172 | 1.563 | – | – | –
Nc1nc2c(-c3ccc(S(=O)(=O)NC4CC5CNC4C5)c(S(N)(=O)=O)c3-c3nnn[nH]3)cccc2s1 (stereo not drawn) [Example 89, 4-(2-aminobenzo[d]thiazol-4-yl)-N^1-(2-azabicyclo[2.2.1]heptan-6-yl)-3-(1H-tetrazol-5-yl)benzene-1,2-disulfonamide] | 1.00 | 6.25 | 3.125 | 6.25 | 230 | 1.563 | 58.1 | 568 | 1.563 | – | – | –
NCCCNS(=O)(=O)c1ccc(-c2cccc3sc(N)nc23)c(-c2nnn[nH]2)c1S(N)(=O)=O.O=C(O)C(F)(F)F [Example 90, 3-(4-(2-aminobenzo[d]thiazol-4-yl)-2-sulfamoyl-3-(1H-tetrazol-5-yl)phenylsulfonamido)propan-1-aminium 2,2,2-trifluoroacetate] | 0.50 | 3.125 | 1.563 | 3.125 | 270 | 1.563 | 79.5 | 411 | 0.7813 | – | – | –
Nc1nc2c(-c3ccc(S(=O)(=O)NCC4(F)CNC4)c(S(N)(=O)=O)c3-c3nnn[nH]3)cccc2s1.O=CO [Example 91, 3-(((4-(2-aminobenzo[d]thiazol-4-yl)-2-sulfamoyl-3-(1H-tetrazol-5-yl)phenyl)sulfonamido)methyl)-3-fluoroazetidin-1-ium formate] | 1.00 | 1.563 | 1.563 | 3.125 | – | 1.563 | 76.9 | 326 | 1.563 | 327 | – | –
CNCCCN(C)S(=O)(=O)c1ccc(-c2cccc3sc(N)nc23)c(-c2nnn[nH]2)c1S(N)(=O)=O.O=C(O)C(F)(F)F [Example 93, 3-(4-(2-aminobenzo[d]thiazol-4-yl)-N-methyl-2-sulfamoyl-3-(1H-tetrazol-5-yl)phenylsulfonamido)-N-methylpropan-1-aminium 2,2,2-trifluoroacetate] | 1.00 | 6.25 | 3.125 | 12.5 | 12400 | 3.125 | 6350 | 5290 | 3.125 | – | – | –
NC[C@@H]1CCN(S(=O)(=O)c2ccc(-c3cccc4sc(N)nc34)c(-c3nnn[nH]3)c2S(N)(=O)=O)C1.O=C(O)C(F)(F)F [Example 94, (S)-(1-((4-(2-aminobenzo[d]thiazol-4-yl)-2-sulfamoyl-3-(1H-tetrazol-5-yl)phenyl)sulfonyl)pyrrolidin-3-yl)methanaminium 2,2,2-trifluoroacetate] | 1.00 | 3.646 | 2.083 | 3.125 | – | 1.563 | – | – | 1.563 | 973 | 574 | 730
Nc1nc2c(-c3ccc(S(=O)(=O)NC4CCC5OC4CC5N)c(S(N)(=O)=O)c3-c3nnn[nH]3)cccc2s1.O=C(O)C(F)(F)F (stereo not drawn) [Example 95, 2-(4-(2-aminobenzo[d]thiazol-4-yl)-2-sulfamoyl-3-(1H-tetrazol-5-yl)phenylsulfonamido)-8-oxabicyclo[3.2.1]octan-6-aminium 2,2,2-trifluoroacetate] | 1.00 | 1.563 | 3.125 | 3.125 | 173 | 1.563 | 27 | 193 | 1.563 | – | – | –
Nc1nc2c(-c3ccc(S(=O)(=O)NCC4COCCN4)c(S(N)(=O)=O)c3-c3nnn[nH]3)cccc2s1.O=C(O)C(F)(F)F (stereo not drawn) [Example 96, 3-((4-(2-aminobenzo[d]thiazol-4-yl)-2-sulfamoyl-3-(1H-tetrazol-5-yl)phenylsulfonamido)methyl)morpholin-4-ium 2,2,2-trifluoroacetate] | 1.00 | 6.25 | 3.125 | 6.25 | – | 3.125 | 75.7 | 402 | 3.125 | 299 | – | –
Nc1nc2c(-c3ccc(S(=O)(=O)NC4CN5CCC4CC5)c(S(N)(=O)=O)c3-c3nnn[nH]3)cccc2s1.O=C(O)C(F)(F)F (stereo not drawn) [Example 97, 3-(4-(2-aminobenzo[d]thiazol-4-yl)-2-sulfamoyl-3-(1H-tetrazol-5-yl)phenylsulfonamido)quinuclidin-1-ium 2,2,2-trifluoroacetate] | 1.00 | 3.125 | 3.125 | 3.125 | – | 1.563 | 21.4 | 383 | 1.563 | 222 | – | –
